Organism: Rattus norvegicus
Test: DrugMatrix - Regimen: Daily Repeat
Assay type: toxicity, organism-based, Sprague-Dawley
Design: regimen Daily Repeat, gender Male, age 6-8 weeks
Conditions: in vivo, po, route oral GAVAGE, vehicle 100 % WATER; for ABSOLUTE BASOPHIL / ABSOLUTE EOSINOPHIL / ABSOLUTE LYMPHOCYTE / ABSOLUTE MONOCYTE / ABSOLUTE SEGMENTED NEUTROPHIL / BASOPHIL / EOSINOPHIL / ERYTHROCYTE COUNT / HEMATOCRIT / HEMOGLOBIN / LEUKOCYTE COUNT / LYMPHOCYTE / MEAN CORPUSCULAR HEMOGLOBIN / MEAN CORPUSCULAR HEMOGLOBIN CONCENTRATION / MEAN CORPUSCULAR VOLUME / MONOCYTE / NEUTROPHIL / NUCLEATED RED BLOOD CELLS / PLATELET COUNT: tissue Blood; for ALANINE AMINOTRANSFERASE / ALBUMIN / ALKALINE PHOSPHATASE / ASPARTATE AMINOTRANSFERASE / BLOOD UREA NITROGEN / CARBON DIOXIDE / CHLORIDE / CHOLESTEROL / CREATINE PHOSPHOKINASE / CREATININE / GLUCOSE / LACTATE DEHYDROGENASE / LIPASE / PHOSPHORUS / POTASSIUM / SODIUM / TOTAL BILIRUBIN / TOTAL PROTEIN / URIC ACID: tissue Plasma
[1] = 0 mg/kg, 72 h, dose level Control, time 3 day
[2] = 0 mg/kg, 120 h, dose level Control, time 5 day
[3] = 0.3 mg/kg, 72 h, dose level Low, time 3 day

Clc1cccc(Cl)c1N=C1NCCN1 [CLONIDINE]
ABSOLUTE BASOPHIL [1]: 0 CELLS/uL | ABSOLUTE EOSINOPHIL [1]: 24 CELLS/uL | ABSOLUTE LYMPHOCYTE [1]: 13105 CELLS/uL | ABSOLUTE MONOCYTE [1]: 76 CELLS/uL | ABSOLUTE SEGMENTED NEUTROPHIL [1]: 2145 CELLS/uL | BASOPHIL [1]: 0% | EOSINOPHIL [1]: 0.17% | ERYTHROCYTE COUNT [1]: 5.81 x10E6/uL | HEMATOCRIT [1]: 35.6% | HEMOGLOBIN [1]: 13.72 G/DL | LEUKOCYTE COUNT [1]: 15.35 x10E3/uL | LYMPHOCYTE [1]: 85.5% | MEAN CORPUSCULAR HEMOGLOBIN [1]: 23.62 pg | MEAN CORPUSCULAR HEMOGLOBIN CONCENTRATION [1]: 38.55 G/DL | MEAN CORPUSCULAR VOLUME [1]: 61.23 fL | MONOCYTE [1]: 0.5% | NEUTROPHIL [1]: 13.83% | NUCLEATED RED BLOOD CELLS [1]: 0 /100WBC | PLATELET COUNT [1]: 1189.83 x10E3/uL | ALANINE AMINOTRANSFERASE [1]: 48.67 u/L | ALBUMIN [1]: 4.27 G/DL | ALKALINE PHOSPHATASE [1]: 335 u/L | ASPARTATE AMINOTRANSFERASE [1]: 86.5 u/L | BLOOD UREA NITROGEN [1]: 14.33 mg/dL | CARBON DIOXIDE [1]: 29.17 mmol/L | CHLORIDE [1]: 99.83 MEQ/L | CHOLESTEROL [1]: 71.83 mg/dL | CREATINE PHOSPHOKINASE [1]: 506.83 u/L | CREATININE [1]: 0.18 mg/dL | GLUCOSE [1]: 162.17 mg/dL | LACTATE DEHYDROGENASE [1]: 264.5 u/L | LIPASE [1]: 9.67 u/L | PHOSPHORUS [1]: 11.92 mg/dL | POTASSIUM [1]: 6.55 MEQ/L | SODIUM [1]: 141.53 MEQ/L | TOTAL BILIRUBIN [1]: 0.18 mg/dL | TOTAL PROTEIN [1]: 5.87 G/DL | URIC ACID [1]: 1.67 mg/dL | ABSOLUTE BASOPHIL [2]: 0 CELLS/uL | ABSOLUTE EOSINOPHIL [2]: 25.33 CELLS/uL | ABSOLUTE LYMPHOCYTE [2]: 15680 CELLS/uL | ABSOLUTE MONOCYTE [2]: 92.33 CELLS/uL | ABSOLUTE SEGMENTED NEUTROPHIL [2]: 2102.33 CELLS/uL | BASOPHIL [2]: 0% | EOSINOPHIL [2]: 0.17% | ERYTHROCYTE COUNT [2]: 6 x10E6/uL | HEMATOCRIT [2]: 35.55% | HEMOGLOBIN [2]: 14.12 G/DL | LEUKOCYTE COUNT [2]: 17.9 x10E3/uL | LYMPHOCYTE [2]: 87.33% | MEAN CORPUSCULAR HEMOGLOBIN [2]: 23.65 pg | MEAN CORPUSCULAR HEMOGLOBIN CONCENTRATION [2]: 39.77 G/DL | MEAN CORPUSCULAR VOLUME [2]: 59.52 fL | MONOCYTE [2]: 0.5% | NEUTROPHIL [2]: 12% | NUCLEATED RED BLOOD CELLS [2]: 0.17 /100WBC | PLATELET COUNT [2]: 1325.67 x10E3/uL | ALANINE AMINOTRANSFERASE [2]: 56.17 u/L | ALBUMIN [2]: 4.23 G/DL | ALKALINE PHOSPHATASE [2]: 371.5 u/L | ASPARTATE AMINOTRANSFERASE [2]: 91 u/L | BLOOD UREA NITROGEN [2]: 15.33 mg/dL | CARBON DIOXIDE [2]: 27.67 mmol/L | CHLORIDE [2]: 99.5 MEQ/L | CHOLESTEROL [2]: 66.5 mg/dL | CREATINE PHOSPHOKINASE [2]: 518.5 u/L | CREATININE [2]: 0.18 mg/dL | GLUCOSE [2]: 143.33 mg/dL | LACTATE DEHYDROGENASE [2]: 238.83 u/L | LIPASE [2]: 9.33 u/L | PHOSPHORUS [2]: 10.68 mg/dL | POTASSIUM [2]: 6.5 MEQ/L | SODIUM [2]: 141.88 MEQ/L | TOTAL BILIRUBIN [2]: 0.18 mg/dL | TOTAL PROTEIN [2]: 6 G/DL | URIC ACID [2]: 1.63 mg/dL | ABSOLUTE BASOPHIL [3]: 0 CELLS/uL | ABSOLUTE EOSINOPHIL [3]: 0 CELLS/uL | ABSOLUTE LYMPHOCYTE [3]: 15419.33 CELLS/uL | ABSOLUTE MONOCYTE [3]: 122.67 CELLS/uL | ABSOLUTE SEGMENTED NEUTROPHIL [3]: 2191.33 CELLS/uL | BASOPHIL [3]: 0% | EOSINOPHIL [3]: 0% | ERYTHROCYTE COUNT [3]: 5.84 x10E6/uL | HEMATOCRIT [3]: 35.27% | HEMOGLOBIN [3]: 13.6 G/DL | LEUKOCYTE COUNT [3]: 17.73 x10E3/uL | LYMPHOCYTE [3]: 87% | MEAN CORPUSCULAR HEMOGLOBIN [3]: 23.23 pg | MEAN CORPUSCULAR HEMOGLOBIN CONCENTRATION [3]: 38.57 G/DL | MEAN CORPUSCULAR VOLUME [3]: 60.37 fL | MONOCYTE [3]: 0.67% | NEUTROPHIL [3]: 12.33% | NUCLEATED RED BLOOD CELLS [3]: 0 /100WBC | PLATELET COUNT [3]: 1290.67 x10E3/uL | ALANINE AMINOTRANSFERASE [3]: 45.33 u/L | ALBUMIN [3]: 3.9 G/DL | ALKALINE PHOSPHATASE [3]: 319 u/L | ASPARTATE AMINOTRANSFERASE [3]: 93.67 u/L | BLOOD UREA NITROGEN [3]: 18.33 mg/dL | CARBON DIOXIDE [3]: 27.33 mmol/L | CHLORIDE [3]: 101.67 MEQ/L | CHOLESTEROL [3]: 75 mg/dL | CREATINE PHOSPHOKINASE [3]: 321.67 u/L | CREATININE [3]: 0.19 mg/dL | GLUCOSE [3]: 140.33 mg/dL | LACTATE DEHYDROGENASE [3]: 166 u/L | LIPASE [3]: 9.67 u/L | PHOSPHORUS [3]: 10.43 mg/dL | POTASSIUM [3]: 6.56 MEQ/L | SODIUM [3]: 141.9 MEQ/L | TOTAL BILIRUBIN [3]: 0.17 mg/dL | TOTAL PROTEIN [3]: 5.63 G/DL | URIC ACID [3]: 1.87 mg/dL

From ChEMBL document CHEMBL3885881, “DrugMatrix”
